# Experiments:
# [1] = test system: vascular endothelial cells; assay: Monocrotaline exposure of three-dimensional cellular tissue containing hepatocytes, vascular endothelial cells and hepatic stellate cells; CD31 fluorescent immunostaining; type: cell-based; conditions: mixed three-cell-type three-dimensional tissue; exposure to various concentrations of monocrotaline; FIG. 1B
# Source text: FIG. 1A is a schematic diagram illustrating the above experiment. […] Then, after exposure to various concentrations of monocrotaline, the three-dimensional cellular tissue was fixed and stained for CD31 by fluorescent immunostaining. CD31 is a marker for endothelial cells.
# The upper row of FIG. 1B is a fluorescence microscopy image showing the results of immunostaining. The lower row of FIG. 1B is a skeletonized image obtained by processing the image in the upper row of FIG. 1B.
# [2] = test system: vascular endothelial cells; assay: Comparative experiment: liver tissue of hepatocytes only and separate three-dimensional tissue of vascular endothelial cells and hepatic stellate cells in the same well, monocrotaline exposure; CD31 fluorescent immunostaining; type: cell-based; conditions: hepatocyte tissue and endothelial/stellate tissue separate, not in contact, various concentrations of monocrotaline, FIG. 2B
# Source text: FIG. 2A is a schematic diagram illustrating a comparative experiment. […] Then, after exposure to various concentrations of monocrotaline, these tissues were fixed and stained for CD31 by fluorescent immunostaining.
# FIG. 2B is a fluorescence microscopy image showing the results of immunostaining.
compound,measurement,setting,value
C[C@H]1C(=O)O[C@@H]2CCN3CC=C(COC(=O)[C@](C)(O)[C@]1(C)O)[C@H]23 [monocrotaline],damage to the vascular endothelial cells of the blood vessels (CD31 immunostaining),[1],damaged in a monocrotaline concentration-dependent manner
same,damage to the vascular endothelial cells of the blood vessels (CD31 immunostaining),[2],no damage to the vascular endothelial cells of the blood vessels was observed
